For 61 compounds, Ki results are on record in ChEMBL document CHEMBL1131435, “Biphenylsulfonamide endothelin antagonists: structure-activity relationships of a series of mono- and disubstituted analogues and pharmacology of the orally active endothelin antagonist 2'-amino-N- (3,4-dimethyl-5-isoxazolyl)-4'-(2-methylpropyl)[1, 1'-biphenyl]-2-sulfonamide (BMS-187308)” (J Med Chem, 1998).

In general, Ki refers to a measure of affinity in units of concentration, obtained from inhibition or displacement. A lower Ki goes with a stronger hold on the target.

The structures appear in SMILES notation. Where a SMILES comes first, the peptide text is derived from it.

The target in test [1] is T1, Endothelin receptor type B (Rattus norvegicus, UniProt P21451).
T1 sequence (P21451 whole entry): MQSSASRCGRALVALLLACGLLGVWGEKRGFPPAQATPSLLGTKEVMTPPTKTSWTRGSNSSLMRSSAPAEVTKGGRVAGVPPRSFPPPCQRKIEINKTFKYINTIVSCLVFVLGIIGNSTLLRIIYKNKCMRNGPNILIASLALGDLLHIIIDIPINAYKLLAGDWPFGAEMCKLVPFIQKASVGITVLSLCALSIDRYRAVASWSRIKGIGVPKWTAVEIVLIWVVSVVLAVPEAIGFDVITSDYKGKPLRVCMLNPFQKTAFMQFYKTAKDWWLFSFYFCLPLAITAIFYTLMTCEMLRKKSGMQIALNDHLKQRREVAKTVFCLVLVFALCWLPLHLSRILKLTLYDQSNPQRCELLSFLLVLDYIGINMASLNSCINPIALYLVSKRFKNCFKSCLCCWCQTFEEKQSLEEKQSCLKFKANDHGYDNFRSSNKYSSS
Put plainly: Ability to inhibit binding of [125I]-ET-1 to membranes prepared from […] rat cerebellum (Endothelin B receptor). The format is tissue-based.

The target of a further test is T2, Endothelin-1 receptor (Rattus norvegicus, UniProt P26684).
T2 sequence (P26684 whole entry): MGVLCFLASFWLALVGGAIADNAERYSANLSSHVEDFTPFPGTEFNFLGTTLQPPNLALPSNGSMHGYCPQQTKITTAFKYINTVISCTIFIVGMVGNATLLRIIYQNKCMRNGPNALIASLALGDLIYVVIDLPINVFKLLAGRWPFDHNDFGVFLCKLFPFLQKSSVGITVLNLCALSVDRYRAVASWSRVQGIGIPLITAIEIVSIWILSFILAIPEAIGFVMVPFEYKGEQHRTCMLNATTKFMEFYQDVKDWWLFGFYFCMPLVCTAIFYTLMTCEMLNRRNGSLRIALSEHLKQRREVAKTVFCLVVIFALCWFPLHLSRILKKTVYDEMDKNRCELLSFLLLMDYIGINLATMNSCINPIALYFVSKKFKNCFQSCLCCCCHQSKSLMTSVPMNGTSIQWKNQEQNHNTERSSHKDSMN
Put plainly: Ability to inhibit binding of [125I]ET1 to membranes prepared from A10 rat thoracic aorta smooth muscle Endothelin A receptor. The format is tissue-based.

Take `Cc1noc(NS(=O)(=O)c2ccccc2-c2ccc(OCC(C)C)cc2)c1C`: the Ki amounted to 2.8 µM in test [1] and 32 nM on Endothelin-1 receptor.

With `Cc1noc(NS(=O)(=O)c2ccccc2-c2ccc(CC(C)C)cc2NC(C)C)c1C`, the Ki in test [1] came out at 2.9 µM; on Endothelin-1 receptor it was 34 nM.

For the compound `Cc1noc(NS(=O)(=O)c2ccccc2-c2ccccc2N)c1C`, the Ki in test [1] is more than 200 µM; on Endothelin-1 receptor, 16 nM.

On to `Cc1noc(NS(=O)(=O)c2ccccc2-c2ccc(CC(C)(C)C)cc2)c1C`, for which the Ki in test [1] was found to be 4.1 µM; at Endothelin-1 receptor, 110 nM.

As for `CCCNc1cc(CC(C)C)ccc1-c1ccccc1S(=O)(=O)Nc1onc(C)c1C`, the figures for the Ki (in test [1]; on Endothelin-1 receptor) were 3.7 µM and 29 nM, respectively.

`Cc1noc(NS(=O)(=O)c2ccccc2-c2ccc(CC(C)C)cc2)c1Cc1ccccc1`: the Ki in test [1] was more than 200 µM; on Endothelin-1 receptor, 6400 nM.

In the case of `Cc1noc(NS(=O)(=O)c2ccccc2-c2ccc(CC(C)C)cc2)c1C`, the figures for the Ki (in test [1]; on Endothelin-1 receptor) were 1.7 µM and 18 nM, respectively.

`Cc1noc(NS(=O)(=O)c2ccccc2Oc2ccccc2)c1C` registered a Ki on Endothelin-1 receptor of 2100 nM.

As to `Cc1noc(NS(=O)(=O)c2ccccc2-c2ccc(CC(C)C)cc2CN)c1C`, the results for the Ki (in test [1]; at Endothelin-1 receptor) were 9.6 µM and 100 nM, respectively.

On to `Cc1noc(NS(=O)(=O)c2ccccc2-c2ccc(SC(C)C)cc2)c1C`, for which the Ki in test [1] was determined as 5.7 µM; at Endothelin-1 receptor, 39 nM.

Consider `CC(C)Cc1ccc(-c2ccccc2S(=O)(=O)Nc2onc3c2CCCC3)cc1`, for which the Ki in test [1] was more than 200 µM; on Endothelin-1 receptor it was 24000 nM.

Regarding `CNc1cc(CC(C)C)ccc1-c1ccccc1S(=O)(=O)Nc1onc(C)c1C`, the Ki was found to be 2.2 µM in test [1] and 14 nM at Endothelin-1 receptor.

For `Cc1noc(NS(=O)(=O)c2ccccc2-c2ccc(CC(C)C)cc2N)c1C`, the values for the Ki (in test [1]; on Endothelin-1 receptor) were 1.7 µM and 4.7 nM, respectively.

Turning to `Cc1noc(NS(=O)(=O)c2ccccc2-c2cccc(N)c2)c1C`, the Ki is more than 200 µM in test [1] and 62 nM on Endothelin-1 receptor.

In test [1], `Cc1noc(NS(=O)(=O)c2ccccc2-c2ccc(CC(C)C)cc2C(=O)O)c1C` gave a Ki of 26 µM.

On to `COc1ccc(S(=O)(=O)Nc2onc(C)c2C)c(-c2ccc(CC(C)C)cc2)c1`, for which the Ki came to 6.2 µM in test [1] and 370 nM at Endothelin-1 receptor.

As for `Cc1noc(NS(=O)(=O)c2ccc(NC(=O)CN)cc2-c2ccc(CC(C)C)cc2)c1C`, the inhibition constant Ki was 7.4 µM in test [1] and 1200 nM at Endothelin-1 receptor.

Take `Cc1noc(NS(=O)(=O)c2ccccc2-c2ccc(C(=O)O)cc2)c1C`: the Ki in test [1] was more than 200 µM.

Take `Cc1noc(NS(=O)(=O)c2ccc(NC(=O)c3ccccc3)cc2-c2ccc(CC(C)C)cc2)c1C`: the Ki is 38 µM in test [1] and 5800 nM on Endothelin-1 receptor.

Take `Cc1noc(NS(=O)(=O)c2ccccc2-c2ccccc2)c1C`: in test [1], the Ki is more than 200 µM.

In the case of `Cc1noc(NS(=O)(=O)c2ccccc2-c2ccc(CC(C)C)cc2NCC(=O)O)c1C`, the Ki in test [1] was 12 µM; on Endothelin-1 receptor, 89 nM.

Take `Cc1cc(CC(C)C)ccc1-c1ccccc1S(=O)(=O)Nc1onc(C)c1C`: the values for the Ki (in test [1]; at Endothelin-1 receptor) were 19 µM and 5 nM, respectively.

Consider `COc1cc(OC)nc(NS(=O)(=O)c2ccccc2-c2ccc(CC(C)C)cc2)n1`, for which the figures for the Ki (in test [1]; on Endothelin-1 receptor) were 50 µM and 3900 nM, respectively.

For the compound `Cc1noc(NS(=O)(=O)c2ccc(NCC(=O)O)cc2-c2ccc(CC(C)C)cc2)c1C`, the Ki is 1.9 µM in test [1] and 550 nM at Endothelin-1 receptor.

`CC(=O)Nc1ccc(S(=O)(=O)Nc2onc(C)c2C)c(-c2ccc(CC(C)C)cc2)c1` came in with a Ki in test [1] of 9.8 µM.

Turning to `COc1ccc(-c2ccccc2S(=O)(=O)Nc2onc(C)c2C)cc1`, the Ki in test [1] came to 250 µM; at Endothelin-1 receptor, 33 nM.

`Cc1noc(NS(=O)(=O)c2ccccc2-c2ccc(N(C)C(C)C)cc2)c1C`: the figures for the Ki (in test [1]; on Endothelin-1 receptor) were 20 µM and 60 nM, respectively.

For `Cc1ccc(-c2ccccc2S(=O)(=O)Nc2onc(C)c2C)cc1`, the Ki amounted to 23 µM in test [1] and 55 nM at Endothelin-1 receptor.

As for `Cc1noc(NS(=O)(=O)c2ccccc2-c2cccc(CC(C)C)c2)c1C`, the figures for the Ki (in test [1]; at Endothelin-1 receptor) were 5.6 µM and 190 nM, respectively.

As to `Cc1noc(NS(=O)(=O)c2ccccc2-c2ccc(C(C)C)cc2)c1C`, the Ki came to 19 µM in test [1] and 50 nM at Endothelin-1 receptor.

With `Cc1noc(NS(=O)(=O)c2ccccc2-c2ccc(S(=O)(=O)C(C)C)cc2)c1C`, the Ki in test [1] was found to be 170 µM; at Endothelin-1 receptor, 110 nM.

Take `Cc1[n-][o+]c(NS(=O)(=O)c2ccccc2-c2ccc(CC(C)C)cc2)c1[N+](=O)[O-]`: in test [1], the Ki came to 30 µM.

Take `Cc1cccc(-c2ccc(CC(C)C)cc2)c1S(=O)(=O)Nc1onc(C)c1C`: the Ki in test [1] worked out at 19 µM; at Endothelin-1 receptor, 1300 nM.

`COc1cc(CC(C)C)ccc1-c1ccccc1S(=O)(=O)Nc1onc(C)c1C`: the Ki came out at 54 µM in test [1] and 74 nM on Endothelin-1 receptor.

At Endothelin-1 receptor, `Cc1noc(NS(=O)(=O)c2ccccc2C(C)C)c1C` showed a Ki of 600 nM.

Take `Cc1noc(NS(=O)(=O)c2ccccc2-c2ccc(CCC(C)C)cc2)c1C`: the Ki was determined as 30 µM in test [1] and 80 nM at Endothelin-1 receptor.

Regarding `Cc1noc(NS(=O)(=O)c2ccccc2-c2ccc(CC(C)C)cc2O)c1C`, the inhibition constant (Ki) stood at 9.8 µM in test [1] and 8 nM at Endothelin-1 receptor.

Regarding `Cc1cnoc1NS(=O)(=O)c1ccccc1-c1ccc(CC(C)C)cc1`, the values for the Ki (in test [1]; on Endothelin-1 receptor) were 100 µM and 970 nM, respectively.

For `Cc1noc(NS(=O)(=O)c2ccccc2-c2ccc(CC(C)C)cc2N(C)C)c1C`, the Ki is more than 100 µM in test [1] and 330 nM on Endothelin-1 receptor.

On to `Cc1noc(NS(=O)(=O)c2ccccc2-c2ccccc2[N+](=O)[O-])c1C`, for which the Ki in test [1] was more than 200 µM; at Endothelin-1 receptor it was 140 nM.

With `Cc1noc(NS(=O)(=O)c2ccccc2-c2cccc(N(C)C)c2)c1C`, the figures for the Ki (in test [1]; at Endothelin-1 receptor) were more than 200 µM and 112 nM, respectively.

For the compound `Cc1noc(NS(=O)(=O)c2ccccc2-c2ccc(CC(C)C)cc2NC=O)c1C`, the Ki worked out at 6.9 µM in test [1] and 17 nM at Endothelin-1 receptor.

`Cc1noc(NS(=O)(=O)c2cc(O)ccc2-c2ccc(CC(C)C)cc2)c1C`: the Ki in test [1] is 24 µM; at Endothelin-1 receptor it was 500 nM.

Turning to `Cc1noc(NS(=O)(=O)c2ccccc2-c2ccc(CC(C)C)cc2NCCO)c1C`, the Ki in test [1] is 1.6 µM; on Endothelin-1 receptor, 6.4 nM.

For the compound `Cc1noc(NS(=O)(=O)c2cccc3c(N(C)C)cccc23)c1C` [BMS-182874], the Ki was more than 200 µM in test [1] and 55 nM at Endothelin-1 receptor.

In the case of `Cc1noc(NS(=O)(=O)c2ccccc2-c2ccc(CC(C)C)cc2CNC=O)c1C`, the Ki in test [1] is 1.2 µM; on Endothelin-1 receptor it was 2 nM.

On to `Cc1noc(NS(=O)(=O)c2cccc(OCCO)c2-c2ccc(CC(C)C)cc2)c1C`, for which the Ki in test [1] was 2.3 µM; at Endothelin-1 receptor, 2.7 nM.

As for `CCCc1ccc(-c2ccccc2S(=O)(=O)Nc2onc(C)c2C)cc1`, the figures for the Ki (in test [1]; on Endothelin-1 receptor) were 15 µM and 28 nM, respectively.

As for `Cc1noc(NS(=O)(=O)c2ccccc2F)c1C`, the affinity at Endothelin-1 receptor, expressed as Ki, was 4700 nM.

As to `Cc1noc(NS(=O)(=O)c2cccc(OCC(=O)O)c2-c2ccc(CC(C)C)cc2)c1C`, the figures for the Ki (in test [1]; on Endothelin-1 receptor) were 4 µM and 42 nM, respectively.

On to `Cc1noc(NS(=O)(=O)c2ccccc2-c2ccc(N(C)C)cc2)c1C`, for which the results for the Ki (in test [1]; on Endothelin-1 receptor) were 6 µM and 54 nM, respectively.

In the case of `Cc1onc(NS(=O)(=O)c2ccccc2-c2ccc(CC(C)C)cc2)c1C`, the Ki was 2 µM in test [1] and 13 nM on Endothelin-1 receptor.

On Endothelin-1 receptor, `Cc1[n-][o+]c(NS(=O)(=O)c2ccccc2[N+](=O)[O-])c1C` registered a Ki of 3500 nM.

`CC(C)Cc1ccc(-c2ccccc2S(=O)(=O)Nc2ccc(Cl)nn2)cc1`: the results for the Ki (in test [1]; at Endothelin-1 receptor) were 44 µM and 400 nM, respectively.

Regarding `Cc1noc(NS(=O)(=O)c2ccccc2-c2ccc(CC(C)C)cc2F)c1C`, the Ki in test [1] worked out at 12 µM; at Endothelin-1 receptor, 20 nM.

As for `Cc1noc(NS(=O)(=O)c2ccccc2-c2ccccc2N(C)C)c1C`, the values for the Ki (in test [1]; at Endothelin-1 receptor) were more than 200 µM and 103 nM, respectively.

Regarding `COc1cccc(S(=O)(=O)Nc2onc(C)c2C)c1-c1ccc(CC(C)C)cc1`, the Ki in test [1] stood at 2 µM; at Endothelin-1 receptor it was 16 nM.

For `Cc1noc(NS(=O)(=O)c2ccccc2-c2ccc(C(C)(C)C)cc2)c1C`, the Ki worked out at 15 µM in test [1] and 61 nM on Endothelin-1 receptor.

With `Cc1noc(NS(=O)(=O)c2ccccc2-c2ccc(CC(C)C)cc2C(N)=O)c1C`, the Ki amounted to 12 µM in test [1] and 100 nM on Endothelin-1 receptor.

As to `CC(C)C[C@@H]1NC(=O)[C@@H](C(C)C)NC(=O)[C@@H]2CCCN2C(=O)[C@@H](CC(=O)O)NC(=O)[C@@H](Cc2c[nH]c3ccccc23)NC1=O` [BQ-123] (HELM PEPTIDE1{L.[dW].[dD].P.[dV]}$PEPTIDE1,PEPTIDE1,1:R1-5:R2$$$V2.0), at Endothelin-1 receptor, the affinity, expressed as Ki, was 40 nM.

Turning to `Cc1noc(NS(=O)(=O)c2ccccc2C(F)(F)F)c1C`, the Ki on Endothelin-1 receptor is 700 nM.
